Like-named read-outs stand apart in the source and are kept apart here.

Experiment [1] deals with T1, vanilloid receptor (VR1) (Homo sapiens, UniProt Q8NER1).
T1 construct: expressed in transfected cells; host or cells: CHO K1 cells (ECACC), stably transfected
Put plainly: FLIPR Ca2+ influx assay on CHO K1 cells transfected with the VR1 gene (pharmacological method II). Format: cell-based. The settings on record: CHO-K1, read-out: inhibition in percent, Ki (human) Cap.; for inhibition at 1 µM: ne = no effect.

Experiment [2] concerns the target T1, vanilloid receptor (VR1). The description is as above. It counts as cell-based. The settings on record: table 4; capsaicin; read-out: Ki (human) Cap.
The target in the next experiment is VR1/TRPV1 receptor (Homo sapiens, UniProt Q8NER1). The experiment can be described thus: IC50 (human) after pH stimulus. To be noted: for IC50: table 4. It counts as cell-based.
In experiment [3] the target is T2, vanilloid receptor 1 (VR1/TRPV1) of the rat species (Rattus norvegicus, UniProt O35433).
T2 construct: The spinal column is removed from decapitated rats; from tissue; host or cells: primary cells dissociated from rat dorsal root ganglia
Put plainly: FLIPR Ca2+ influx assay on rat dorsal root ganglia cells (pharmacological method I). Format: cell-based. To be noted: for Ki: table 4, capsaicin. Put shortly:
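Primary rat dorsal root ganglion cells loaded with 2 μM Fluo-4, Ca2+ influx read on FLIPR as peak fluorescence. Triplicates, at least 3 independent experiments.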

For experiment [4], the system named is formaldehyde induced nociceptive behaviour. Put plainly: Formaldehyde test in mice, second (late) phase. Format: in vivo, mouse. To be noted: mouse, read-out: inhibition formaldehyde test (n = 10); for inhibition in vivo at 0.3 mg/kg: 0.3 mg/kg body weight po.
Experiment [5] deals with capsaicin induced hypothermie. Put plainly: Hypothermie assay in the mouse (capsaicin induced hypothermie). Format: in vivo. The settings on record: mouse, read-out: inhibition hypothermie (n = 5); for inhibition in vivo at 0.3 mg/kg: 0.3 mg/kg body weight po.
The mark [6] stands for this setting: read-out: inhibition in percent, IC50 (human) after pH stimulus.

T1 sequence (Q8NER1 whole entry): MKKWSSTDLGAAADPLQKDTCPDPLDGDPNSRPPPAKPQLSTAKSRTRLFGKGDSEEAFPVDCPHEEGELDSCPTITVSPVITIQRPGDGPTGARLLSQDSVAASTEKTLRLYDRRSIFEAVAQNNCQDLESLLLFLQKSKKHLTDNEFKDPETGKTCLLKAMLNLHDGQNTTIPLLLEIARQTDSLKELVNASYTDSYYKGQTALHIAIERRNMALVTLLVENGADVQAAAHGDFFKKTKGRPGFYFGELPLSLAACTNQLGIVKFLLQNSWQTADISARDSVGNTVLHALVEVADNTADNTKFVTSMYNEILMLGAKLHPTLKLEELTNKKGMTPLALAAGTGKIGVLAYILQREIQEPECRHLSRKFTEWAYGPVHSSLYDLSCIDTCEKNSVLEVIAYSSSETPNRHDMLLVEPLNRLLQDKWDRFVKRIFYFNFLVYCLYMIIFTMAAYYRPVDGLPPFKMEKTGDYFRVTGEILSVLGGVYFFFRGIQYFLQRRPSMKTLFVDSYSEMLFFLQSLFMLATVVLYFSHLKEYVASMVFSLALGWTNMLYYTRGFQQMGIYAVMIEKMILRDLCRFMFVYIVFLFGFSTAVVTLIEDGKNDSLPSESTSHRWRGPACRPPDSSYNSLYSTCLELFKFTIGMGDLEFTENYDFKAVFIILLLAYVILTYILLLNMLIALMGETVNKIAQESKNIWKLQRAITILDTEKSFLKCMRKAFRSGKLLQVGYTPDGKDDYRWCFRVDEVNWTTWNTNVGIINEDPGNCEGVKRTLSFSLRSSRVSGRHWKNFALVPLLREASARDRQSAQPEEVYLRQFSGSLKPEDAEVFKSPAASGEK
Chain of VR1/TRPV1 receptor (Q8NER1 whole entry): as above
T2 sequence (O35433 whole entry): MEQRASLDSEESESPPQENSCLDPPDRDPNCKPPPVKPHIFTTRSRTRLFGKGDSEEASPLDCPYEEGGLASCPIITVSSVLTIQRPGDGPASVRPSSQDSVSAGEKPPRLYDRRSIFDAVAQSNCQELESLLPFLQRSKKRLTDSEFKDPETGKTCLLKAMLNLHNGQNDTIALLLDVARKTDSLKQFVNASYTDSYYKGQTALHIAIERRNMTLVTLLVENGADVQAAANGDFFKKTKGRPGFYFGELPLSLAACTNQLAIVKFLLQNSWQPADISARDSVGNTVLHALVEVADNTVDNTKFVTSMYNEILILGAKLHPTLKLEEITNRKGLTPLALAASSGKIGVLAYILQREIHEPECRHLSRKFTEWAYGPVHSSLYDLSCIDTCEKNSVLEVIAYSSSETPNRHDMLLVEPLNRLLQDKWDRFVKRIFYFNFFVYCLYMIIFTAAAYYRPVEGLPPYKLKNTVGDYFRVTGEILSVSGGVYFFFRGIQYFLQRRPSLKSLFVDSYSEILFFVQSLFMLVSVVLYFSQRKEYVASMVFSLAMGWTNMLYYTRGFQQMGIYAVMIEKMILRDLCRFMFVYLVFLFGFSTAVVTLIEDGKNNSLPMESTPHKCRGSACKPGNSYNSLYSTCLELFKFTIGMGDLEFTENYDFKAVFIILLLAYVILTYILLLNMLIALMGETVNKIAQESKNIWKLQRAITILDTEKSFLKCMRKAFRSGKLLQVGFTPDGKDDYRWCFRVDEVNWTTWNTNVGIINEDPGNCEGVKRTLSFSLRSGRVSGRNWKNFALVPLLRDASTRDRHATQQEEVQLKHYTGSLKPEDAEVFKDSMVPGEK

One may read the inhibition as the drop in the measured response relative to a control, in per cent. On to `CC(C(=O)NCc1c(CO)cc(C(C)(C)C)nc1OCc1ccccc1)c1ccc(NS(C)(=O)=O)c(F)c1` (stereo not shown) [Compound 223], for which the inhibition at 0.1 µM at vanilloid receptor (VR1) [1] (@ 0.1 μM) stood at 4%.

For `CC1CCN(c2nc(C(F)(F)F)ccc2CNC(=O)C(C)c2ccc(NS(=O)(=O)C(F)(F)F)c(F)c2)CC1` (stereo not shown) [Compound 312], the inhibition at 1 µM on vanilloid receptor (VR1) [1] stood at 7%.

Consider `CC(C(=O)NCc1ccc(C(F)(F)F)nc1N1CCS(=O)(=O)CC1)c1ccc(NS(C)(=O)=O)c(F)c1` (stereo not shown) [Compound 314], for which, at vanilloid receptor (VR1) [1], the inhibition at 1 µM came to 12%.

Consider `CC(C(=O)NCc1ccc(C(F)(F)F)nc1OCC1CCNCC1)c1ccc(NS(C)(=O)=O)c(F)c1` (stereo not shown) [Compound 343], for which, on vanilloid receptor (VR1) [1], the inhibition at 1 µM amounted to 8%.

As for `CC(C(=O)NCc1ccc(C(F)(F)F)nc1OC1CCNCC1)c1ccc(NS(C)(=O)=O)c(F)c1` (stereo not shown) [Compound 344], the inhibition at 1 µM at vanilloid receptor (VR1) [1] was found to be 3%.

Usually Ki stands for a dissociation constant, usually derived from enzyme kinetics or from competition with a known ligand. As a reminder, the IC50 is the concentration that inhibits the measured activity by half. Low values mean greater potency in that assay, high ones weaker potency in that assay. For the compound `CCCCOC1CCN(c2nc(C(F)(F)F)ccc2CNC(=O)C(C)c2ccc(NS(C)(=O)=O)c(F)c2)CC1` (stereo not shown) [Example 160, N-(4-butoxy-6′-trifluoromethyl-3,4,5,6-tetrahydro-2H-[1,2′]bipyridinyl-3′-ylmethyl)-2-(3-fluoro-4-methylsulfonamido-phenyl)-propionamide], the results for the Ki (at vanilloid receptor (VR1) [2]; in experiment [3] (read-out: Ki (rat) Cap.)) were 3.5 nM and 3 nM, respectively. On VR1/TRPV1 receptor, this compound came in with an IC50 of 28.2 nM. Further, the inhibition in vivo at 0.3 mg/kg in experiment [4] worked out at 10%; in experiment [5] it was 28%.

Take `CC(C(=O)NCc1ccc(C(F)(F)Cl)nc1OC1CCCC1)c1ccc(NS(C)(=O)=O)c(F)c1` (stereo not shown) [Example 166, N-[6-(chloro-difluoro-methyl)-2-cyclopentyloxy-pyridin-3-ylmethyl]-2-(3-fluoro-4-methylsulfonamido-phenyl)-propionamide]: the results for the Ki (on vanilloid receptor (VR1) [2]; in experiment [3] (read-out: Ki (rat) Cap.)) were 0.5 nM and 1.1 nM, respectively. For the same compound, half-maximal inhibition at VR1/TRPV1 receptor (IC50) was put at 18.5 nM. Moreover, the inhibition in vivo at 0.3 mg/kg in experiment [4] came to 48%; in experiment [5], 28%.

Regarding `CCCCN(C)c1nc(C(F)(F)F)ccc1CNC(=O)C(C)c1ccc(NS(C)(=O)=O)c(F)c1` (stereo not shown) [Example 167, N-[2-(butyl-methyl-amino)-6-trifluoromethyl-pyridin-3-ylmethyl]-2-(3-fluoro-4-methylsulfonamido-phenyl)-propionamide], the Ki came to 0.8 nM at vanilloid receptor (VR1) [2] and 2.8 nM in experiment [3] (read-out: Ki (rat) Cap.). For the same compound, half-maximal inhibition at VR1/TRPV1 receptor (IC50) was put at 21.3 nM. Also, in experiment [4] (0.1 mg/kg body weight po), the inhibition in vivo at 0.1 mg/kg came out at 62%. Further, in experiment [5], the inhibition in vivo at 0.3 mg/kg turned out to be 19%.

As for `CC(C(=O)NCc1ccc(C(F)(F)Cl)nc1OC1CCCCC1)c1ccc(NS(C)(=O)=O)c(F)c1` (stereo not shown) [Example 168, N-[6-(chloro-difluoro-methyl)-2-cyclohexyloxy-pyridin-3-ylmethyl]-2-(3-fluoro-4-methylsulfonamido-phenyl)-propionamide], the Ki on vanilloid receptor (VR1) [2] is 0.9 nM; in experiment [3] (read-out: Ki (rat) Cap.) it was 1.4 nM. For the same compound, half-maximal inhibition against VR1/TRPV1 receptor (IC50) was put at 17.6 nM. For the same compound, the inhibition in vivo at 0.3 mg/kg is 1% in experiment [4] and 21% in experiment [5].

Consider `CCC1CCC(Oc2nc(C(F)(F)F)ccc2CNC(=O)C(C)c2ccc(NS(C)(=O)=O)c(F)c2)CC1` (stereo not shown) [Example 171, N-[2-(4-ethyl-cyclohexyloxy)-6-trifluoromethyl-pyridin-3-ylmethyl]-2-(3-fluoro-4-methylsulfonamido-phenyl)-propionamide], for which the Ki was found to be 4.8 nM on vanilloid receptor (VR1) [2] and 2.4 nM in experiment [3] (Ki (rat) Cap.). Moreover, the IC50 against VR1/TRPV1 receptor worked out at 125 nM. Besides, the values for the inhibition in vivo at 0.3 mg/kg in experiment [4] and in experiment [5] were 45% and 32%, respectively.

In the case of `CC(C(=O)NCc1ccc(C(F)(F)F)nc1NCc1ccc(Cl)cc1)c1ccc(NS(C)(=O)=O)c(F)c1` (stereo not shown) [Example 173, N-[2-(4-chloro-benzylamino)-6-trifluoromethyl-pyridin-3-ylmethyl]-2-(3-fluoro-4-methylsulfonamido-phenyl)-propionamide], the values for the Ki (at vanilloid receptor (VR1) [2]; in experiment [3] (read-out: Ki (rat) Cap.)) were 65.7 nM and 78.4 nM, respectively. The compound further gave an IC50 at VR1/TRPV1 receptor of 414 nM. For the same compound, the values for the inhibition in vivo at 0.3 mg/kg in experiment [4] and in experiment [5] were 0% and 36%, respectively.

For the compound `CC(C(=O)NCc1ccc(C(F)(F)F)cc1N1CCCCCC1)c1ccc(NS(C)(=O)=O)c(F)c1` (stereo not shown) [Example 174, N-(2-azepan-1-yl-4-trifluoromethyl-benzyl)-2-(3-fluoro-4-methylsulfonamido-phenyl)-propionamide], the Ki is 1.6 nM on vanilloid receptor (VR1) [2] and 1.4 nM in experiment [3] (read-out: Ki (rat) Cap.). At VR1/TRPV1 receptor, half-maximal inhibition (IC50) was put at 64.5 nM. Moreover, the figures for the inhibition in vivo at 0.3 mg/kg in experiment [4] and in experiment [5] were 5% and 39%, respectively.

Consider `CC(C(=O)NCc1ccc(C(F)(F)F)nc1OCc1ccncc1)c1ccc(NS(C)(=O)=O)c(F)c1` (stereo not shown) [Example 177, 2-(3-fluoro-4-methylsulfonamido-phenyl)-N-[2-(pyridin-4-ylmethoxy)-6-trifluoromethyl-pyridin-3-ylmethyl]-propionamide], for which the Ki on vanilloid receptor (VR1) [2] amounted to 51 nM. For the same compound, the midpoint of inhibition against VR1/TRPV1 receptor, the IC50, lay at 1290 nM. Besides, the inhibition at 1 µM in experiment [3] (read-out: inhibition in percent, Ki (rat) Cap.) was determined as 34%. Further, the results for the inhibition in vivo at 0.3 mg/kg in experiment [4] and in experiment [5] were 31% and 14%, respectively.

On to `CC(C(=O)NCc1ccc(C(F)(F)F)nc1N1CCN(c2ccc(F)cc2)CC1)c1ccc(NS(C)(=O)=O)c(F)c1` (stereo not shown) [Example 179, 2-(3-fluoro-4-methylsulfonamido-phenyl)-N-{2-[4-(4-fluoro-phenyl)-piperazin-1-yl]-6-trifluoromethyl-pyridin-3-ylmethyl}-propionamide], for which the figures for the Ki (on vanilloid receptor (VR1) [2]; in experiment [3] (read-out: Ki (rat) Cap.)) were 1.1 nM and 1 nM, respectively. The IC50 against VR1/TRPV1 receptor came to 23.1 nM. Also, the inhibition in vivo at 0.3 mg/kg in experiment [4] is 5%; in experiment [5] it was 57%.

Regarding `CC(C(=O)NCc1ccc(C(F)(F)Cl)nc1OCc1ccccn1)c1ccc(NS(C)(=O)=O)c(F)c1` (stereo not shown) [Example 182, N-[6-(chloro-difluoro-methyl)-2-(pyridin-2-ylmethoxy)-pyridin-3-ylmethyl]-2-(3-fluoro-4-methylsulfonamido-phenyl)-propionamide], the Ki on vanilloid receptor (VR1) [2] stood at 4.2 nM; in experiment [3] (read-out: Ki (rat) Cap.), 7.3 nM. Further, half-maximal inhibition against VR1/TRPV1 receptor (IC50) required 637 nM. Further, the results for the inhibition in vivo at 0.3 mg/kg in experiment [4] and in experiment [5] were 1% and 45%, respectively.

Regarding `CC(C(=O)NCc1ccc(C(F)(F)F)cc1N1CCCCCCC1)c1ccc(NS(C)(=O)=O)c(F)c1` (stereo not shown) [Example 217, N-(2-azocan-1-yl-4-trifluoromethyl-benzyl)-2-(3-fluoro-4-methylsulfonamido-phenyl)-propionamide], the results for the Ki (on vanilloid receptor (VR1) [2]; in experiment [3] (read-out: Ki (rat) Cap.)) were 2.8 nM and 1.1 nM, respectively. This compound yielded an IC50 against VR1/TRPV1 receptor of 36.5 nM. In addition, the inhibition in vivo at 0.3 mg/kg in experiment [4] was 9%. Moreover, the inhibition in vivo at 0.1 mg/kg in experiment [5] (0.1 mg/kg body weight po) came to 40%.

For `CC(C(=O)NCc1ccc(C(F)(F)F)nc1-c1ccc2[nH]ccc2c1)c1ccc(NS(C)(=O)=O)c(F)c1` (stereo not shown) [Example 276, 2-(3-fluoro-4-methylsulfonamido-phenyl)-N-[2-(1H-indol-5-yl)-6-trifluoromethyl-pyridin-3-ylmethyl]-propionamide], the inhibition at 5 µM at vanilloid receptor (VR1) [1] was 78%; at VR1/TRPV1 receptor (setting [6]), 43%. In addition, at VR1/TRPV1 receptor (@ 0.1 μM, read-out: inhibition in percent, IC50 (human) after pH stimulus), the inhibition at 0.1 µM was determined as 11%. On VR1/TRPV1 receptor (@ 1 μM, ne = no effect, read-out: inhibition in percent, IC50 (human) after pH stimulus), the inhibition at 1 µM was found to be 11%.

As to `CC1CCN(c2nc(C(F)(F)F)ccc2CNC(=O)C(C)c2ccc(NS(=O)(=O)C(F)(F)F)c(F)c2)CC1` (stereo not shown) [Example 312, 2-(3-fluoro-4-trifluoromethylsulfonamido-phenyl)-N-(4-methyl-6′-trifluoromethyl-3,4,5,6-tetrahydro-2H-[1,2′]bipyridinyl-3′-ylmethyl)-propionamide], the inhibition at 5 µM on vanilloid receptor (VR1) [1] stood at 68%. In addition, the “inhibition in percent, IC50 (human) after pH stimulus” value (“inhibition in percent, IC50 (human)” for short) at VR1/TRPV1 receptor (@ 1 μM, ne = no effect) was “ne @ 1 μM”.

`CC(C(=O)NCc1ccc(C(F)(F)F)nc1N1CCS(=O)(=O)CC1)c1ccc(NS(C)(=O)=O)c(F)c1` (stereo not shown) [Example 314, N-[2-(1,1-dioxo-1l6-thiomorpholin-4-yl)-6-trifluoromethyl-pyridin-3-ylmethyl]-2-(3-fluoro-4-methylsulfonamido-phenyl)-propionamide]: the inhibition at 5 µM on vanilloid receptor (VR1) [1] is 46%; on VR1/TRPV1 receptor (setting [6]), 14%. In addition, the inhibition at 10 µM on VR1/TRPV1 receptor (@ 10 μM, read-out: inhibition in percent, IC50 (human) after pH stimulus) was determined as 31%.

Regarding `CC(C(=O)NCc1ccc(C(F)(F)F)nc1OCC1CCNCC1)c1ccc(NS(C)(=O)=O)c(F)c1` (stereo not shown) [Example 343, 2-(3-fluoro-4-methylsulfonamido-phenyl)-N-[2-(piperidin-4-ylmethoxy)-6-trifluoromethyl-pyridin-3-ylmethyl]-propionamide], the inhibition at 5 µM on vanilloid receptor (VR1) [1] worked out at 55%. At VR1/TRPV1 receptor (@ 1 μM, ne = no effect), the “inhibition in percent, IC50 (human)” value is “ne @ 1 μM”.

`CC(C(=O)NCc1ccc(C(F)(F)F)nc1OC1CCNCC1)c1ccc(NS(C)(=O)=O)c(F)c1` (stereo not shown) [Example 344, 2-(3-fluoro-4-methylsulfonamido-phenyl)-N-[2-(piperidin-4-yloxy)-6-trifluoromethyl-pyridin-3-ylmethyl]-propionamide]: the inhibition at 5 µM at vanilloid receptor (VR1) [1] was determined as 34%. The “inhibition in percent, IC50 (human)” value against VR1/TRPV1 receptor (@ 1 μM, ne = no effect) is “ne @ 1 μM”.

The values above are taken from patent publication US8710233B2 (Gruenenthal GmbH, priority 2005, dated 2014).
